Reference: article PMC12028158, “Synthesis and In Vitro Evaluation of the Anticancer Effect of Novel Phosphonium Vindoline Derivatives” (International Journal of Molecular Sciences, 2025)
Read-outs that look alike come from different tables or passages of the source.

Columns and labels:
Format in all cases: cell-based
OVCAR-3 [1] = assay: NCI60 five-dose screen; conditions: Homo sapiens, OVCAR-3
SF-539 = assay: NCI60 five-dose screen; conditions: Homo sapiens, SF-539
HCT-15 [2] = assay: NCI60 five-dose screen; conditions: Homo sapiens, HCT-15
HS 578T = assay: NCI60 five-dose screen; conditions: Homo sapiens, Hs-578T
OVCAR-8 = assay: NCI60 one-dose screen; conditions: Homo sapiens, OVCAR-8, read-out: Growth percent
Ovarian Cancer panel = assay: NCI60 five-dose screen, panel mean; conditions: Homo sapiens
Leukemia panel = assay: NCI60 five-dose screen, panel mean; conditions: Homo sapiens
SK-OV-3 = assay: NCI60 five-dose screen; conditions: Homo sapiens, SK-OV-3
HL-60(TB) [3] = assay: NCI60 five-dose screen; conditions: Homo sapiens, HL-60
UACC-62 = assay: NCI60 one-dose screen; conditions: Homo sapiens, UACC-62, read-out: Growth percent
MALME-3M [4] = assay: NCI60 five-dose screen; conditions: Homo sapiens, Malme-3M
Renal Cancer panel = assay: NCI60 five-dose screen, panel mean; conditions: Homo sapiens
SK-MEL-28 [5] = assay: NCI60 one-dose screen; conditions: Homo sapiens, SK-MEL-28, read-out: Growth percent
NCI-H23 = assay: NCI60 one-dose screen; conditions: Homo sapiens, NCI-H23, read-out: Growth percent
COLO 205 = assay: NCI60 five-dose screen; conditions: Homo sapiens, COLO 205
CNS Cancer panel = assay: NCI60 five-dose screen, panel mean; conditions: Homo sapiens
NCI-H322M [6] = assay: NCI60 five-dose screen; conditions: Homo sapiens
HOP-62 = assay: NCI60 one-dose screen; conditions: Homo sapiens, HOP-62, read-out: Growth percent
BT-549 [7] = assay: NCI60 one-dose screen; conditions: Homo sapiens, BT-549, read-out: Growth percent
RXF 393 [8] = assay: NCI60 one-dose screen; conditions: Homo sapiens, RXF 393, read-out: Growth percent
NCI-H226 = assay: NCI60 one-dose screen; conditions: Homo sapiens, NCI-H226, read-out: Growth percent
BT-549 [9] = assay: NCI60 five-dose screen; conditions: Homo sapiens, BT-549
K-562 = assay: NCI60 five-dose screen; conditions: Homo sapiens, K562
CCRF-CEM = assay: NCI60 one-dose screen; conditions: Homo sapiens, read-out: Growth percent
SK-MEL-2 = assay: NCI60 one-dose screen; conditions: Homo sapiens, SK-MEL-2, read-out: Growth percent
LOX IMVI = assay: NCI60 one-dose screen; conditions: Homo sapiens, read-out: Growth percent
HCC-2998 = assay: NCI60 five-dose screen; conditions: Homo sapiens, HCC 2998
SF-268 = assay: NCI60 five-dose screen; conditions: Homo sapiens, SF-268
OVCAR-3 [10] = assay: NCI60 one-dose screen; conditions: Homo sapiens, OVCAR-3, read-out: Growth percent
MALME-3M [11] = assay: NCI60 one-dose screen; conditions: Homo sapiens, Malme-3M, read-out: Growth percent
OVCAR-4 = assay: NCI60 one-dose screen; conditions: Homo sapiens, OVCAR-4, read-out: Growth percent
A549/ATCC = assay: NCI60 one-dose screen; conditions: Homo sapiens, A549, read-out: Growth percent
SNB-19 = assay: NCI60 one-dose screen; conditions: Homo sapiens, SNB-19, read-out: Growth percent
HCT-116 = assay: NCI60 one-dose screen; conditions: Homo sapiens, HCT-116, read-out: Growth percent
SNB-75 = assay: NCI60 one-dose screen; conditions: Homo sapiens, SNB-75, read-out: Growth percent
UO-31 = assay: NCI60 one-dose screen; conditions: Homo sapiens, UO-31, read-out: Growth percent
NCI/ADR-RES = assay: NCI60 five-dose screen; conditions: Homo sapiens
RPMI-8226 = assay: NCI60 five-dose screen; conditions: Homo sapiens, RPMI-8226
CAKI-1 = assay: NCI60 one-dose screen; conditions: Homo sapiens, CAKI-1, read-out: Growth percent
HL-60(TB) [12] = assay: NCI60 one-dose screen; conditions: Homo sapiens, HL-60, read-out: Growth percent
RXF 393 [13] = assay: NCI60 five-dose screen; conditions: Homo sapiens, RXF 393
HCT-15 [14] = assay: NCI60 one-dose screen; conditions: Homo sapiens, HCT-15, read-out: Growth percent
NCI-H322M [15] = assay: NCI60 one-dose screen; conditions: Homo sapiens, read-out: Growth percent
SK-MEL-28 [16] = assay: NCI60 five-dose screen; conditions: Homo sapiens, SK-MEL-28
HT29 = assay: NCI60 one-dose screen; conditions: Homo sapiens, HT-29, read-out: Growth percent
Breast Cancer panel = assay: NCI60 five-dose screen, panel mean; conditions: Homo sapiens

Q: What does the source list for `CC[C@]12C=CCN3CC[C@@]4(c5ccc(OC)cc5N(C)[C@H]4[C@@](O)(C(=O)OC)[C@@H]1OC(=O)CCC[P+](c1ccccc1)(c1ccccc1)c1ccccc1OC)[C@@H]32` [9f]?
A: GI50 (OVCAR-3 [1]): 297 nM; GI50 (SF-539): 434 nM; GI50 (HCT-15 [2]): 9070 nM; GI50 (HS 578T): 473 nM; activity at 10 µM (OVCAR-8): 6.9%; GI50 (Ovarian Cancer panel; read-out: Mean GI50): 4200 nM; GI50 (Leukemia panel; read-out: Mean GI50): 220 nM; GI50 (SK-OV-3): 411 nM; GI50 (HL-60(TB) [3]): 170 nM; activity at 10 µM (UACC-62): -73.2%; GI50 (MALME-3M [4]): 295 nM; GI50 (Renal Cancer panel; read-out: Mean GI50): 3080 nM; activity at 10 µM (SK-MEL-28 [5]): -63.3%; activity at 10 µM (NCI-H23): -57.8%; GI50 (COLO 205): 179 nM; GI50 (CNS Cancer panel; read-out: Mean GI50): 570 nM; GI50 (NCI-H322M [6]): 2230 nM; activity at 10 µM (HOP-62): -13.7%; activity at 10 µM (BT-549 [7]): -64.2%; activity at 10 µM (RXF 393 [8]): -83.6%; activity at 10 µM (NCI-H226): -38.6%; GI50 (BT-549 [9]): 262 nM; GI50 (K-562): 125 nM; activity at 10 µM (CCRF-CEM): 0.92%; activity at 10 µM (SK-MEL-2): -98%; activity at 10 µM (LOX IMVI): -95.7%; GI50 (HCC-2998): 325 nM; GI50 (SF-268): 372 nM; activity at 10 µM (OVCAR-3 [10]): -75%; activity at 10 µM (MALME-3M [11]): -96.7%; activity at 10 µM (OVCAR-4): -11.1%; activity at 10 µM (A549/ATCC): 20.1%; activity at 10 µM (SNB-19): -95.2%; activity at 10 µM (HCT-116): -51%; activity at 10 µM (SNB-75): -79.5%; activity at 10 µM (UO-31): 44%; GI50 (NCI/ADR-RES): 26100 nM; GI50 (RPMI-8226): 106 nM; activity at 10 µM (CAKI-1): -40.2%; activity at 10 µM (HL-60(TB) [12]): -5.95%; GI50 (RXF 393 [13]): 247 nM; activity at 10 µM (HCT-15 [14]): 30.7%; activity at 10 µM (NCI-H322M [15]): 25.9%; GI50 (SK-MEL-28 [16]): 506 nM; activity at 10 µM (HT29): -57.8%; GI50 (Breast Cancer panel; read-out: Mean GI50): 310 nM

Q: `CC[C@]12C=CCN3CC[C@@]4(c5ccc(OC)cc5N(C)[C@H]4[C@@](O)(C(=O)OC)[C@@H]1OC(=O)CCCC[P+](c1ccc(C)cc1)(c1ccc(C)cc1)c1ccc(C)cc1)[C@@H]32` [10a] was tested. Which GI50 (OVCAR-3 [1]) did it give?
A: 604 nM

Q: What about the GI50 (SF-539) of the same molecule?
A: 1220 nM

Q: And the GI50 (HCT-15 [2])?
A: 2170 nM

Q: What about the GI50 (HS 578T) of the same molecule?
A: 1200 nM

Q: What about the activity at 10 µM (OVCAR-8) of the same molecule?
A: -86.6%

Q: And the GI50 (Ovarian Cancer panel; read-out: GI50 Mean)?
A: 2540 nM

Q: And the GI50 (Leukemia panel; read-out: GI50 Mean)?
A: 480 nM

Q: What about the GI50 (SK-OV-3) of the same molecule?
A: 1040 nM

Q: And the GI50 (HL-60(TB) [3])?
A: 221 nM

Q: And the activity at 10 µM (UACC-62)?
A: -97.4%

Q: What about the GI50 (MALME-3M [4]) of the same molecule?
A: 1170 nM

Q: And the GI50 (Renal Cancer panel; read-out: GI50 Mean)?
A: 2340 nM

Q: And the activity at 10 µM (SK-MEL-28 [5])?
A: -97.8%

Q: And the activity at 10 µM (NCI-H23)?
A: -92.4%

Q: And the GI50 (COLO 205)?
A: 200 nM

Q: What about the GI50 (CNS Cancer panel; read-out: GI50 Mean) of the same molecule?
A: 1090 nM

Q: And the GI50 (NCI-H322M [6])?
A: 2670 nM

Q: And the activity at 10 µM (HOP-62)?
A: -84%

Q: What about the activity at 10 µM (BT-549 [7]) of the same molecule?
A: -97%

Q: What about the activity at 10 µM (RXF 393 [8]) of the same molecule?
A: -87.6%

Q: What about the activity at 10 µM (NCI-H226) of the same molecule?
A: -78.6%

Q: What about the GI50 (BT-549 [9]) of the same molecule?
A: 763 nM

Q: And the GI50 (K-562)?
A: 654 nM

Q: What about the activity at 10 µM (CCRF-CEM) of the same molecule?
A: -72.4%

Q: What about the activity at 10 µM (SK-MEL-2) of the same molecule?
A: -87.2%

Q: What about the activity at 10 µM (LOX IMVI) of the same molecule?
A: -94.5%

Q: What about the GI50 (HCC-2998) of the same molecule?
A: 520 nM

Q: What about the GI50 (SF-268) of the same molecule?
A: 1170 nM

Q: What about the activity at 10 µM (OVCAR-3 [10]) of the same molecule?
A: -77.1%

Q: And the activity at 10 µM (MALME-3M [11])?
A: -96%

Q: What about the activity at 10 µM (OVCAR-4) of the same molecule?
A: -68.9%

Q: And the activity at 10 µM (A549/ATCC)?
A: -92.2%

Q: And the activity at 10 µM (SNB-19)?
A: -96.5%

Q: And the activity at 10 µM (HCT-116)?
A: -93.5%

Q: And the activity at 10 µM (SNB-75)?
A: -87.6%

Q: What about the activity at 10 µM (UO-31) of the same molecule?
A: -96%

Q: What about the GI50 (NCI/ADR-RES) of the same molecule?
A: 12000 nM

Q: What about the GI50 (RPMI-8226) of the same molecule?
A: 283 nM

Q: And the activity at 10 µM (CAKI-1)?
A: -95.2%

Q: And the activity at 10 µM (HL-60(TB) [12])?
A: -42.2%

Q: And the GI50 (RXF 393 [13])?
A: 468 nM

Q: And the activity at 10 µM (HCT-15 [14])?
A: -90.1%

Q: What about the activity at 10 µM (NCI-H322M [15]) of the same molecule?
A: -97.6%

Q: What about the GI50 (SK-MEL-28 [16]) of the same molecule?
A: 485 nM

Q: And the activity at 10 µM (HT29)?
A: -81.8%

Q: And the GI50 (Breast Cancer panel; read-out: GI50 Mean)?
A: 580 nM
